Results: patent US20110173718A1, “HERBICIDE TOLERANT PLANTS” (SYNGENTA CROP PROTECTION, INC., priority 2008, published 2011)

How the values were obtained:
[1] = test system: weeds; assay: Glasshouse weed control, HST inhibitors alone and with A22, pre-emergence; format: in vivo; details: 336 h, 14 DAT; for pest or weed control at 15.625 g/ha: HST inhibitor rate 15.625 g/ha; for pest or weed control at 62.5 g/ha: HST inhibitor rate 62.5 g/ha; for pest or weed control at 250 g/ha: HST inhibitor rate 250 g/ha
In short: (§1)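 Weeds grown in glasshouse trays (24-27 C day, 18-21 C night, ~15 h photoperiod) and track-sprayed in 0.2% X77 at […], pre-emergence or post-emergence at about 7-12 d. HPPD inhibitor A22 applied at 2 g/ha alone or mixed with HST herbicides. Damage scored 0–100% at 14 DAT; synergy calculated by Colby formula.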

[2] = target: T1, Arabidopsis HST (Arabidopsis thaliana, UniProt Q1ACB3); assay: HST total extraction (non TLC) assay, recombinant Arabidopsis HST from insect cells; format: biochemical
T1 construct: GST (factor Xa cleavage site) (N); made in house; host or cells: Sf9 insect cells (baculovirus, pAcG3X), membrane fraction
T1 sequence (Q1ACB3 70-386): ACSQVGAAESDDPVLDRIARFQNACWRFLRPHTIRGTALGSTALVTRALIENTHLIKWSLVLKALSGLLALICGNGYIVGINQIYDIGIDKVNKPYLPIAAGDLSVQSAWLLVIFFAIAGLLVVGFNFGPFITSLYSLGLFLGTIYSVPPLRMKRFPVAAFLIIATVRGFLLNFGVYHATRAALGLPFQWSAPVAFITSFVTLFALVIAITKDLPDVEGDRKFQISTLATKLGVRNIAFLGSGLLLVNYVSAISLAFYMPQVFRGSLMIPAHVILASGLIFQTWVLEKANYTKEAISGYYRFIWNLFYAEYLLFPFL

[3] = test system: weeds; assay: Glasshouse weed control, HST inhibitors alone and with A22, post-emergence; format: in vivo; details: 336 h, 14 DAT, single replicate, read-out: % control score, Obs; for pest or weed control at 15.625 g/ha: 15.625 g/ha alone; for pest or weed control at 62.5 g/ha: 62.5 g/ha alone; for pest or weed control at 250 g/ha: 250 g/ha alone
In short: as §1

[4] = BRAPL, read-out: BRAPL Obs, % control score
[5] = PANMI, read-out: PANMI Obs, % control score
[6] = SIDSP, read-out: SIDSP Obs, % control score
[7] = Digitaria sanguinalis, DIGSA, read-out: DIGSA Obs, % control score
[8] = Echinochloa crus-galli, ECHCG, read-out: ECHCG Obs, % control score
[9] = Setaria faberi, SETFA, read-out: SETFA Obs, % control score

Compound: O=c1c(-c2cc(Cl)ccc2C(F)(F)F)c(O)c2nccnc2n1CC(F)F [Compound 2.19]
- pest or weed control at 15.625 g/ha [1, 4]: 0%
- pest or weed control at 62.5 g/ha [1, 4]: 10%
- pest or weed control at 250 g/ha [1, 4]: 40%
- pest or weed control at 15.625 g/ha [1, 5]: 0%
- pest or weed control at 62.5 g/ha [1, 5]: 0%
- pest or weed control at 250 g/ha [1, 5]: 60%
- pest or weed control at 15.625 g/ha [1, 6]: 0%
- pest or weed control at 62.5 g/ha [1, 6]: 2%
- pest or weed control at 250 g/ha [1, 6]: 10%
- pest or weed control at 15.625 g/ha [1, 7]: 0%
- pest or weed control at 62.5 g/ha [1, 7]: 0%
- pest or weed control at 250 g/ha [1, 7]: 20%
- pest or weed control at 15.625 g/ha [1, 8]: 0%
- pest or weed control at 62.5 g/ha [1, 8]: 50%
- pest or weed control at 250 g/ha [1, 8]: 90%
- pest or weed control at 15.625 g/ha [1, 9]: 0%
- pest or weed control at 62.5 g/ha [1, 9]: 5%
- pest or weed control at 250 g/ha [1, 9]: 60%
- Estimated IC50 (ppm) [2]: 6 ppm
- pest or weed control at 15.625 g/ha ([3]; BRAPL): 20%
- pest or weed control at 62.5 g/ha ([3]; BRAPL): 70%
- pest or weed control at 250 g/ha ([3]; BRAPL): 80%
- pest or weed control at 15.625 g/ha ([3]; PANMI): 40%
- pest or weed control at 62.5 g/ha ([3]; PANMI): 70%
- pest or weed control at 250 g/ha ([3]; PANMI): 85%
- pest or weed control at 15.625 g/ha ([3]; SIDSP): 15%
- pest or weed control at 62.5 g/ha ([3]; SIDSP): 30%
- pest or weed control at 250 g/ha ([3]; SIDSP): 50%
- pest or weed control at 15.625 g/ha ([3]; Digitaria sanguinalis, DIGSA): 30%
- pest or weed control at 62.5 g/ha ([3]; Digitaria sanguinalis, DIGSA): 50%
- pest or weed control at 250 g/ha ([3]; Digitaria sanguinalis, DIGSA): 70%
- pest or weed control at 15.625 g/ha ([3]; Echinochloa crus-galli, ECHCG): 30%
- pest or weed control at 62.5 g/ha ([3]; Echinochloa crus-galli, ECHCG): 45%
- pest or weed control at 250 g/ha ([3]; Echinochloa crus-galli, ECHCG): 75%
- pest or weed control at 15.625 g/ha ([3]; Setaria faberi, SETFA): 30%
- pest or weed control at 62.5 g/ha ([3]; Setaria faberi, SETFA): 60%
- pest or weed control at 250 g/ha ([3]; Setaria faberi, SETFA): 80%

Compound: O=c1c(-c2c(Cl)cccc2C(F)(F)F)c(O)c2nccnc2n1CC(F)F [Compound 2.20]
- pest or weed control at 15.625 g/ha [1, 4]: 0%
- pest or weed control at 62.5 g/ha [1, 4]: 10%
- pest or weed control at 250 g/ha [1, 4]: 60%
- pest or weed control at 15.625 g/ha [1, 5]: 0%
- pest or weed control at 62.5 g/ha [1, 5]: 2%
- pest or weed control at 250 g/ha [1, 5]: 30%
- pest or weed control at 15.625 g/ha [1, 6]: 0%
- pest or weed control at 62.5 g/ha [1, 6]: 0%
- pest or weed control at 250 g/ha [1, 6]: 5%
- pest or weed control at 15.625 g/ha [1, 7]: 0%
- pest or weed control at 62.5 g/ha [1, 7]: 0%
- pest or weed control at 250 g/ha [1, 7]: 20%
- pest or weed control at 15.625 g/ha [1, 8]: 1%
- pest or weed control at 62.5 g/ha [1, 8]: 15%
- pest or weed control at 250 g/ha [1, 8]: 90%
- pest or weed control at 15.625 g/ha [1, 9]: 0%
- pest or weed control at 62.5 g/ha [1, 9]: 20%
- pest or weed control at 250 g/ha [1, 9]: 65%
- Estimated IC50 (ppm) [2]: 16 ppm
- pest or weed control at 15.625 g/ha ([3]; BRAPL): 30%
- pest or weed control at 62.5 g/ha ([3]; BRAPL): 50%
- pest or weed control at 250 g/ha ([3]; BRAPL): 95%
- pest or weed control at 15.625 g/ha ([3]; PANMI): 15%
- pest or weed control at 62.5 g/ha ([3]; PANMI): 45%
- pest or weed control at 250 g/ha ([3]; PANMI): 85%
- pest or weed control at 15.625 g/ha ([3]; SIDSP): 10%
- pest or weed control at 62.5 g/ha ([3]; SIDSP): 50%
- pest or weed control at 250 g/ha ([3]; SIDSP): 55%
- pest or weed control at 15.625 g/ha ([3]; Digitaria sanguinalis, DIGSA): 20%
- pest or weed control at 62.5 g/ha ([3]; Digitaria sanguinalis, DIGSA): 60%
- pest or weed control at 250 g/ha ([3]; Digitaria sanguinalis, DIGSA): 80%
- pest or weed control at 15.625 g/ha ([3]; Echinochloa crus-galli, ECHCG): 20%
- pest or weed control at 62.5 g/ha ([3]; Echinochloa crus-galli, ECHCG): 60%
- pest or weed control at 250 g/ha ([3]; Echinochloa crus-galli, ECHCG): 90%
- pest or weed control at 15.625 g/ha ([3]; Setaria faberi, SETFA): 25%
- pest or weed control at 62.5 g/ha ([3]; Setaria faberi, SETFA): 65%
- pest or weed control at 250 g/ha ([3]; Setaria faberi, SETFA): 80%

Compound: O=c1c(-c2c(F)ccc(Cl)c2Cl)c(O)c2nccnc2n1CC(F)F [Compound 2.21]
- pest or weed control at 15.625 g/ha [1, 4]: 0%
- pest or weed control at 62.5 g/ha [1, 4]: 2%
- pest or weed control at 250 g/ha [1, 4]: 5%
- pest or weed control at 15.625 g/ha [1, 5]: 0%
- pest or weed control at 62.5 g/ha [1, 5]: 0%
- pest or weed control at 250 g/ha [1, 5]: 0%
- pest or weed control at 15.625 g/ha [1, 6]: 0%
- pest or weed control at 62.5 g/ha [1, 6]: 0%
- pest or weed control at 250 g/ha [1, 6]: 1%
- pest or weed control at 15.625 g/ha [1, 7]: 0%
- pest or weed control at 62.5 g/ha [1, 7]: 0%
- pest or weed control at 250 g/ha [1, 7]: 0%
- pest or weed control at 15.625 g/ha [1, 8]: 0%
- pest or weed control at 62.5 g/ha [1, 8]: 0%
- pest or weed control at 250 g/ha [1, 8]: 5%
- pest or weed control at 15.625 g/ha [1, 9]: 0%
- pest or weed control at 62.5 g/ha [1, 9]: 0%
- pest or weed control at 250 g/ha [1, 9]: 2%
- Estimated IC50 (ppm) [2]: 64 ppm
- pest or weed control at 15.625 g/ha ([3]; BRAPL): 5%
- pest or weed control at 62.5 g/ha ([3]; BRAPL): 30%
- pest or weed control at 250 g/ha ([3]; BRAPL): 80%
- pest or weed control at 15.625 g/ha ([3]; PANMI): 10%
- pest or weed control at 62.5 g/ha ([3]; PANMI): 30%
- pest or weed control at 250 g/ha ([3]; PANMI): 70%
- pest or weed control at 15.625 g/ha ([3]; SIDSP): 5%
- pest or weed control at 62.5 g/ha ([3]; SIDSP): 20%
- pest or weed control at 250 g/ha ([3]; SIDSP): 40%
- pest or weed control at 15.625 g/ha ([3]; Digitaria sanguinalis, DIGSA): 0%
- pest or weed control at 62.5 g/ha ([3]; Digitaria sanguinalis, DIGSA): 10%
- pest or weed control at 250 g/ha ([3]; Digitaria sanguinalis, DIGSA): 20%
- pest or weed control at 15.625 g/ha ([3]; Echinochloa crus-galli, ECHCG): 0%
- pest or weed control at 62.5 g/ha ([3]; Echinochloa crus-galli, ECHCG): 10%
- pest or weed control at 250 g/ha ([3]; Echinochloa crus-galli, ECHCG): 40%
- pest or weed control at 15.625 g/ha ([3]; Setaria faberi, SETFA): 2%
- pest or weed control at 62.5 g/ha ([3]; Setaria faberi, SETFA): 20%
- pest or weed control at 250 g/ha ([3]; Setaria faberi, SETFA): 60%

Compound: O=S1(=O)C(c2ccc(Br)cc2C(F)(F)F)=C(O)c2nccnc2N1CC(F)F [Compound 3.5]
- pest or weed control at 15.625 g/ha [1, 4]: 0%
- pest or weed control at 62.5 g/ha [1, 4]: 0%
- pest or weed control at 250 g/ha [1, 4]: 0%
- pest or weed control at 15.625 g/ha [1, 5]: 0%
- pest or weed control at 62.5 g/ha [1, 5]: 0%
- pest or weed control at 250 g/ha [1, 5]: 0%
- pest or weed control at 15.625 g/ha [1, 6]: 0%
- pest or weed control at 62.5 g/ha [1, 6]: 0%
- pest or weed control at 250 g/ha [1, 6]: 2%
- pest or weed control at 15.625 g/ha [1, 7]: 0%
- pest or weed control at 62.5 g/ha [1, 7]: 0%
- pest or weed control at 250 g/ha [1, 7]: 0%
- pest or weed control at 15.625 g/ha [1, 8]: 0%
- pest or weed control at 62.5 g/ha [1, 8]: 0%
- pest or weed control at 250 g/ha [1, 8]: 0%
- pest or weed control at 15.625 g/ha [1, 9]: 0%
- pest or weed control at 62.5 g/ha [1, 9]: 0%
- pest or weed control at 250 g/ha [1, 9]: 0%
- Estimated IC50 (ppm) [2]: 42 ppm
- pest or weed control at 15.625 g/ha ([3]; BRAPL): 2%
- pest or weed control at 62.5 g/ha ([3]; BRAPL): 30%
- pest or weed control at 250 g/ha ([3]; BRAPL): 65%
- pest or weed control at 15.625 g/ha ([3]; PANMI): 5%
- pest or weed control at 62.5 g/ha ([3]; PANMI): 15%
- pest or weed control at 250 g/ha ([3]; PANMI): 70%
- pest or weed control at 15.625 g/ha ([3]; SIDSP): 2%
- pest or weed control at 62.5 g/ha ([3]; SIDSP): 10%
- pest or weed control at 250 g/ha ([3]; SIDSP): 10%
- pest or weed control at 15.625 g/ha ([3]; Digitaria sanguinalis, DIGSA): 0%
- pest or weed control at 62.5 g/ha ([3]; Digitaria sanguinalis, DIGSA): 0%
- pest or weed control at 250 g/ha ([3]; Digitaria sanguinalis, DIGSA): 5%
- pest or weed control at 15.625 g/ha ([3]; Echinochloa crus-galli, ECHCG): 5%
- pest or weed control at 62.5 g/ha ([3]; Echinochloa crus-galli, ECHCG): 15%
- pest or weed control at 250 g/ha ([3]; Echinochloa crus-galli, ECHCG): 30%
- pest or weed control at 15.625 g/ha ([3]; Setaria faberi, SETFA): 2%
- pest or weed control at 62.5 g/ha ([3]; Setaria faberi, SETFA): 10%
- pest or weed control at 250 g/ha ([3]; Setaria faberi, SETFA): 40%
